Measurements reported in patent US7772252B2, “Heterocyclic substituted carbonyl derivatives and their use as dopamine D3 receptor ligands” (Aventis Pharmaceuticals Inc., priority 2001, dated 2010).
pKi: −log10 of the molar value.

Target: T1, cloned human dopamine D3 receptors (Homo sapiens, UniProt P35462)
T1 construct: expressed in transfected cells; membrane homogenate
Test: [N-Methyl-3H]Spiroperidol binding to cloned human dopamine D3 receptors
Conditions: read-out: D3 Ki
Description: [N-Methyl-^3H]Spiroperidol Binding to Cloned Human Dopamine D3 Receptors
This assay measures the in vitro activity of compounds on cloned human dopamine (D3) receptors and predicts the direct dopamine-blocking properties of putative neuropsychiatric agents at human dopamine D3 receptors.
The D3 gene was isolated from a human striatal cDNA library (Stratagene). The gene was sequenced and sub-cloned into the expression vector RC/RSV (Invitrogen). CHO (Chinese Hamster Ovary) cells were stably transfected with 10 μg of the D3/RSV plasmid using the DOTAP method from Boehringer Mannheim and 72 clones that were G418 resistant were isolated. Using mRNA and binding displacement data a single high expressing clone was identified. This clone was then grown in large batches for the purpose of developing a 96 well format assay.
• 1. One plate (10 cm) with approximately 2-3 million D3 cells per plate is incubated with 1 ml of Trypsin-EDTA at room temperature for ˜2 min or until cells have lifted off plates. Four ml of Ham's F12+10% Fetal Bovine Serum+1% Penicillin/Streptomycin+G418 (400 μg/ml) medium are added to resuspend cells and 1 ml of this is added to each large plate (15 cm) containing 19 ml of the same medium as mentioned above. • 2. The 5 large plates are incubated at 37° C.+5% CO2 for ˜3 days or until the cells are confluent. • 3. After these plates are confluent, they are split into 10 large plates. Medium is aspirated off, 2 ml of Trypsin-EDTA are added to each plate and plates are incubated at RT for 2 min or until cells have lifted off the plate. Eight ml of the F12 medium (same medium as #1 above) are added to each plate (10 ml total) to resuspend the cells and 5 ml are transferred to the 2 new plates containing 15 ml of the F12 media. • 4. The 10 large plates are incubated at 37° C.+5% CO2 for ˜2 days or until the cells are confluent. • 5. The 10 large plates are split into 60 large plates (using Trypsin-EDTA as #3 except 4 ml of F12 medium are added to resuspend cells and 1 ml is aliquoted to 6 new plates containing 19 ml of F12 medium each). • 6. Plates are incubated at 37° C.+5% CO2 for ˜3 days or until cell are confluent. • 7. The 60 large plates are then split into 60 roller bottles (100-150 million cells/bottle). Medium is aspirated off, 2 ml of Trypsin-EDTA are added to each plate and incubated at RT for ˜2 minutes or until cells have lifted off plates. Eight ml of F12 medium are added to each plate to resuspend cells and the entire 10 ml are added to 1 roller bottle containing 90 ml of the F12 medium. • 8. The 60 roller bottles are immediately placed on their sides and transferred to the roller bottle incubator. They are incubated at 37° C.+5% CO2 for ˜3-5 days. Cells are spun at 30-40% motor speed in the Form a incubator. • 9. Medium is poured off and cells are washed 2× in PBS. • 10. Cells are then scraped off in 20 ml of PBS and the bottles are rinsed again with 5 ml of PBS to remove any remaining cells. Cells are stored on ice before membrane preparation. • 11. The yield for 60 D3 roller bottles has varied from ˜260-500 mg. • Note: All tissue culture reagents are from Gibco-BRL. C. Membrane Preparation
The cells are harvested into 250 ml centrifuge tubes with 100 volumes of cold phosphate buffered saline (PBS) and spun down (1200×G for 10 min at 4° C.). The medium is removed and 100 ml PBS are added to each centrifuge tube, cells are resuspened and spun down again. The PBS is removed and the final pellet is homogenized in an appropriate volume of 10% DMSO with a polytron on ice at a medium setting.
A 200 μl sample membrane homogenate is added to 200 μl of 1% SDS, vortexed and allowed to stand for 5 min. Aliquots (25, 50 and 100 μl) of this mixture are assayed in duplicate following the standard Bio-Rad DC protein assay protocol (kit catalog number 500-0112) and using reagent S. Absorbance readings are made at 750 nm (note: the most accurate protein OD readings are between 0.1-0.5 units). […]

T1 sequence (P35462 whole entry): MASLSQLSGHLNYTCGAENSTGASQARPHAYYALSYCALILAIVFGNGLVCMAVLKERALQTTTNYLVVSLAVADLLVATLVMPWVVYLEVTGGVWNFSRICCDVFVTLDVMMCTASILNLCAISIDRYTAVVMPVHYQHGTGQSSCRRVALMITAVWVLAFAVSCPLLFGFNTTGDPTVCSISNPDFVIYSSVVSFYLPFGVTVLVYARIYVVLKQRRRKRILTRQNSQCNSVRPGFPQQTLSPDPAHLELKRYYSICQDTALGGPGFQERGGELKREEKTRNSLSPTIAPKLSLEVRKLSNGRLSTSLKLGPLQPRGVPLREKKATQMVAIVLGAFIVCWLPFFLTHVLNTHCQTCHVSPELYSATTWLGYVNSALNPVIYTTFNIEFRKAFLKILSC

`COc1c(F)ccc2c(C3CCN(C[C@@H]4C[C@H]4C(=O)N[C@H]4CC[C@H](C)CC4)CC3)noc12` [compound 831361, 2R-[4-(6-Fluoro-7-methoxy-benzo[d]isoxazol-3-yl)-piperidin-1-ylmethyl]-1R-cyclopranecarboxylic acid (trans-4-methyl-cyclohexyl)-amide] gave a pKi of 8.76.
In the case of `Cc1ccc2c(c1)c(C1CCN(C[C@@H]3C[C@H]3C(=O)NCCCn3ccnc3)CC1)nn2C` [compound 834129], the pKi was 8.17.
Work on `O=C(NCCCn1cnc2ccccc21)[C@@H]1C[C@H]1CN1CCC(c2noc3ccsc23)CC1` [compound 831377] yielded a pKi of 8.33.
`O=C(NC1CCN(CC2CC2)CC1)C1CC1CN1CCC(c2noc3ccsc23)CC1` (racemic) [compound 832341] was tested, and the pKi was 8.58.
`C[C@H]1CC[C@H](NC(=O)[C@H]2C[C@@H]2CN2CCN(c3noc4ccsc34)CC2)CC1` [compound 831082] showed a pKi of 7.42.
For `CCC1CCC(NC(=O)C2CC2CN2CCC(n3c(=O)[nH]c4ccccc43)CC2)CC1` (racemic) [compound 827250], the pKi was 7.34.
For `C[C@H]1CC[C@H](NC(=O)[C@@H]2C[C@H]2CN2CCC(c3nn(-c4cccnc4)c4ccccc34)CC2)CC1` [compound 833695], the pKi was 6.75.
With `O=C(NCCc1ccccc1)C1(CCN2CCC(c3noc4ccsc34)CC2)CC1` [compound 832180] the pKi was 7.04.
`CC[C@H]1CC[C@H](NC(=O)[C@@H]2C[C@H]2CN2CCN(c3nn(-c4ccc(C(F)(F)F)cc4)c4ccccc34)CC2)CC1` [compound 831226] was tested, and the pKi was 7.57.
With `O=C(NCCCN1CCSCC1)[C@@H]1C[C@H]1CN1CCN(c2nn(-c3ccc(C(F)(F)F)cc3)c3ccsc23)CC1` [compound 834206] the pKi was 7.05.
`O=C([C@@H]1C[C@H]1CN1CCC(c2noc3ccsc23)CC1)N1CCN(Cc2ccc(F)cc2)CC1` [compound 833132] was tested, and the pKi was 6.97.
Work on `O=C(NC1CCN(Cc2cccc(Cl)c2)CC1)C1CC1CN1CCC(c2noc3ccsc23)CC1` (racemic) [compound 831995] yielded a pKi of 8.33.
For `O=C(NC1CCN(Cc2cccc(F)c2F)CC1)C1CC1CN1CCC(c2noc3ccsc23)CC1` (racemic) [compound 832340], the pKi was 7.94.
`O=C([C@@H]1C[C@H]1CN1CCN(c2csc3cc(C(F)(F)F)ccc23)CC1)N1CCN(Cc2ccccc2)CC1` [compound 831883] was tested, and the pKi was 7.32.
`CC1CCCCN1CCCNC(=O)[C@@H]1C[C@H]1CN1CCN(c2csc3cc(C(F)(F)F)ccc23)CC1` (mixture of isomers) [compound 832578] showed a pKi of 7.59.
With `O=C(C1CC1CN1CCC(c2noc3ccsc23)CC1)N1CCC(c2nc3ccccc3s2)CC1` (racemic) [compound 831702] the pKi was 7.55.
With `O=C(NC1CCN(c2ncccc2C(F)(F)F)C1)C1CC1CN1CCC(c2noc3ccsc23)CC1` (racemic) [compound 832199] the pKi was 7.73.
In the case of `O=C(NCCCc1ccccc1)[C@@H]1C[C@H]1CN1CCC(c2noc3ccsc23)CC1` [compound 830828], the pKi was 8.07.
In the case of `CCC1CCC(NC(=O)C2CC2CN2CCC(c3noc4cc(Cl)ccc34)CC2)CC1` (racemic) [compound 829363], the pKi was 7.19.
For `O=C(NCCc1c[nH]cn1)[C@@H]1C[C@H]1CN1CCC(c2noc3ccsc23)CC1` [compound 831192], the pKi was 8.46.
Work on `O=C(NCCCN1CCCCC1)[C@@H]1C[C@H]1CN1CCC(c2nn(-c3ccc(F)cc3)c3cc(F)ccc23)CC1` [compound 833157] yielded a pKi of 7.36.
In the case of `C[C@H]1CC[C@H](NC(=O)[C@@H]2CC[C@H]2CN2CCCN(c3noc4ccsc34)CC2)CC1` (racemic) [compound 830000], the pKi was 6.54.
In the case of `CN1CCN(C(=O)C2CC2CN2CCC(c3noc4ccsc34)CC2)CC1` (racemic) [compound 829590], the pKi was 6.96.
Molecule `CN(CCc1c[nH]c2ccccc12)C(=O)[C@@H]1C[C@H]1CN1CCC(c2noc3ccsc23)CC1` [compound 831278] has a pKi of 7.74.
`O=C(NC1CCN(Cc2ccc(Cl)c(Cl)c2)CC1)[C@@H]1C[C@H]1CN1CCC(c2cc3ccccc3s2)CC1` [compound 832716] was tested, and the pKi was 8.12.
Molecule `O=C(NCCCn1cccc1)[C@@H]1C[C@H]1CN1CCC(c2noc3ccsc23)CC1` [compound 831376] has a pKi of 7.39.
`COc1cccc2c(C3CCN(C[C@@H]4C[C@H]4C(=O)NC4CC5CCC4(C)C5(C)C)CC3)nn(C)c12` (some centres unmarked) [compound 834055] showed a pKi of 7.21.
In the case of `O=C(C1CC1CN1CCC(c2noc3ccsc23)CC1)N1CCN(CC2CCCCC2)CC1` (racemic) [compound 832195], the pKi was 7.64.
`Cn1nc(N2CCN(C[C@@H]3C[C@H]3C(=O)NC3CCN(Cc4cc(F)ccc4F)CC3)CC2)c2sccc21` [A002436429] gave a pKi of 8.38.
Work on `O=C([C@@H]1C[C@H]1CN1CCC(c2noc3ccsc23)CC1)N1CCN(Cc2ccc(Cl)cc2)CC1` [compound 833128] yielded a pKi of 7.57.
Molecule `COCCN1CCN(C(=O)[C@@H]2C[C@H]2CN2CCN(c3csc4cc(C(F)(F)F)ccc34)CC2)CC1` [compound 832835] has a pKi of 7.74.
`C[C@H]1CC[C@H](N2CC(CN3CCN(c4noc5ccsc45)CC3)CC2=O)CC1` (some centres unmarked) [832831DA] was tested, and the pKi was 5.94.
With `O=C(NC1CCN(Cc2cc(Cl)cc(Cl)c2)CC1)C1CC1CN1CCC(c2noc3ccsc23)CC1` (racemic) [compound 831819] the pKi was 10.00.
Work on `COc1cccc2c(C3CCN(C[C@@H]4C[C@H]4C(=O)N4CCC[C@@H](Cn5ccnc5)C4)CC3)noc12` [A002437359, (3S-Imidazol-1-ylmethyl-piperidin-1-yl)-{2R-[4-(7-methoxy-benzo[d]isoxazol-3-yl)-piperidin-1-ylmethyl]-1R-cyclopropyl}-methanone] yielded a pKi of 9.27.
In the case of `O=C(NC1CCN(Cc2cc(F)cc(F)c2)CC1)C1CC1CN1CCC(c2noc3ccsc23)CC1` (racemic) [compound 832343], the pKi was 9.14.
Work on `O=C(NCCCc1ccccc1)[C@@H]1C[C@H]1CN1CCC(c2nn(-c3ccc(C(F)(F)F)cc3)c3ccccc23)CC1` [compound 831312] yielded a pKi of 6.67.
`O=C(NC1CCN(Cc2ccc3ccccc3c2)CC1)C1CC1CN1CCC(c2noc3ccsc23)CC1` (racemic) [compound 831818] showed a pKi of 9.93.
Work on `O=C(C1CC1CN1CCC(c2noc3ccsc23)CC1)N1CCN(CCc2ccncc2)CC1` (racemic) [compound 832000] yielded a pKi of 7.10.
In the case of `COc1ccccc1CCNC(=O)C1CC1CN1CCC(c2noc3ccsc23)CC1` (racemic) [compound 831805], the pKi was 7.99.
For `O=C(NCC1CCNCC1)[C@@H]1C[C@H]1CN1CCN(c2csc3cc(C(F)(F)F)ccc23)CC1` [compound 832859], the pKi was 7.84.
`O=C(NC1CC1)[C@@H]1C[C@H]1CN1CCC(c2noc3ccsc23)CC1` [compound 829460] showed a pKi of 6.80.
For `O=C(NCCCn1cnc(Cl)c1Cl)[C@@H]1C[C@H]1CN1CCC(c2noc3ccsc23)CC1` [compound 831198], the pKi was 8.75.
For `O=C(NCCc1ccc(F)cc1)C1CC1CN1CCC(c2noc3ccsc23)CC1` (racemic) [compound 831802], the pKi was 7.87.
In the case of `O=C([C@@H]1C[C@H]1CN1CCC(c2csc3cc(C(F)(F)F)ccc23)CC1)N1CCCC(Cn2ccnc2)C1` (mixture of isomers) [A002287512], the pKi was 9.19.
In the case of `COc1ccc2c(c1)c(N1CCN(C[C@@H]3C[C@H]3C(=O)NCCCn3ccnc3)CC1)nn2C` [compound 831808], the pKi was 8.42.
With `COc1ccccc1CN1CCC(NC(=O)[C@@H]2C[C@H]2CN2CCN(c3csc4cc(C(F)(F)F)ccc34)CC2)CC1` [compound 832739] the pKi was 8.54.
With `CN1CCN(CCCNC(=O)[C@@H]2C[C@H]2CN2CCC(c3nn(C)c4ccsc34)CC2)CC1` [A002438640] the pKi was 6.98.
